Consider 2 molecules from US20040053355A1, “Modular approach to on-line synthesis, drug discovery and biochemical transformations using immobilized enzyme reactors” (priority 2000, published 2004).

Data set [1] has as its target T1, dopamine beta-hydroxylase (DBH), non-immobilized (Bos taurus, UniProt P15101).
T1 construct: purchased
T1 sequence (P15101 1-610): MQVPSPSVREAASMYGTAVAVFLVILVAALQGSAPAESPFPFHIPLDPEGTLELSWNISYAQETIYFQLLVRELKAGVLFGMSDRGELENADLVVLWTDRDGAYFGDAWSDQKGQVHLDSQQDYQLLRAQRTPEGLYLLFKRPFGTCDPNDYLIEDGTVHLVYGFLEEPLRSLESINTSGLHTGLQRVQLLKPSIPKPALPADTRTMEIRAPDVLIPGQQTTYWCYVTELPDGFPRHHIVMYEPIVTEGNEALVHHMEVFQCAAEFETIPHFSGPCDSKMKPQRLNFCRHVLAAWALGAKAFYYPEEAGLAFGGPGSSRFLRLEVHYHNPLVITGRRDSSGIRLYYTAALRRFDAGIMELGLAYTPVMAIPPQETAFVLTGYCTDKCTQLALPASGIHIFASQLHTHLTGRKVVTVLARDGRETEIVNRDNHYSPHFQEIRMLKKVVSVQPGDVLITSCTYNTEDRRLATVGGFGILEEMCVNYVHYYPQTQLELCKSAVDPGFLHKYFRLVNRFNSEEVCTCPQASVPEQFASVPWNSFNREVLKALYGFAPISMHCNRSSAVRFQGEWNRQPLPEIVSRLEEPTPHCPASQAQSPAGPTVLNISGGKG
Put plainly: Non-immobilized DBH activity assay, batch incubation with HPLC-fluorescence analysis. The class given is biochemical, bovine. As to the method:
The solutes were quantitated using fluorescence detection with excitation at λ=265 nm and no cut-off filter for emission. A flow rate of 1 ml/min and ambient temperature were used throughout the study.
Enzymatic conversions utilizing DBH require cupric sulphate, catalase, ascorbic acid and sodium fumarate. An off-line extraction method utilizing solid phase extraction cartridges containing a phenylboronic acid stationary phase was developed. The procedure consisted of the following: 1-ml cartridges were conditioned with 2 ml of methanol followed by 2 ml of sodium phosphate buffer (0.1M, pH 8.4). One ml of reaction mixture was added, the cartridge was then washed with 1 ml sodium phosphate buffer (0.1M, pH 8.4) and the substrate and product were eluted using 1 ml of 0.1N HCl. The eluate was directly injected onto the HPLC system.
(§1) The enzyme was assayed as follows: four different solutions were prepared A, B, C and D (final concentration). (A) 500 μL of enzyme solution (10 μg/ml); B: 275 μL sodium acetate buffer (10 mM, pH 5.5), 50 μL cupric sulphate (5 μM); C: 25 μL catalase (5 μg/ml), 50 μL ascorbic acid (10 mM), 50 μl sodium fumarate (10 mM); D: 50 μl substrate (5 mM). Solution B was added to solution A, the resulting solution was mixed for 1 min. Solution C was added and the resulting solution was mixed for an additional minute. The reaction was started with the addition of the substrate (D), after which the reaction solution was incubated for 5 min at 37° C. in a shaking bath. The reaction was stopped by the addition of 100 μl of cold hexane, the resulting mixture was centrifuged at 3000×g for 10 min and the supernatant transferred to the pre-conditioned phenylboronic acid cartridges in order to extract the product formed and the remaining substrate. Extracted samples were directly injected onto the HPLC under either chiral or achiral conditions.

Data set [2] concerns the target T2, dopamine beta-hydroxylase immobilized onto IAM (DBH-IAM) (Bos taurus, UniProt P15101).
T2 construct: purchased
T2 sequence (P15101 1-610): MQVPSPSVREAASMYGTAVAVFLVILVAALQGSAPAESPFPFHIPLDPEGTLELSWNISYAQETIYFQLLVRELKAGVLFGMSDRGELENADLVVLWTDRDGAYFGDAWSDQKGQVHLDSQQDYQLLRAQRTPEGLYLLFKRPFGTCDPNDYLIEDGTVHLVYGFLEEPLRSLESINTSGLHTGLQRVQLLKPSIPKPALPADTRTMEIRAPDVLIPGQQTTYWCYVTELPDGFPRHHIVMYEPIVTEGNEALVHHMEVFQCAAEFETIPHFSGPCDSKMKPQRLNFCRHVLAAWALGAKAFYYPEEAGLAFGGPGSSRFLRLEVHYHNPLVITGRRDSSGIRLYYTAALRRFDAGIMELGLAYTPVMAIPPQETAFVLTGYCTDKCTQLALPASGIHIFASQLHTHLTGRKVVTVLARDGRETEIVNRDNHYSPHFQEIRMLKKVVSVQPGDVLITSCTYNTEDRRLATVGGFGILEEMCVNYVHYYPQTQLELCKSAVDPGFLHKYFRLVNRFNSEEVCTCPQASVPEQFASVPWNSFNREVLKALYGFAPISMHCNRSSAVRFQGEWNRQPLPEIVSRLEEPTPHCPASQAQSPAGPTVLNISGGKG
Put plainly: DBH immobilized onto IAM stationary phase (DBH-IAM), batch assay. Format: biochemical, bovine. As to the method: as §1
The packing material was washed three times with sodium acetate buffer (0.1M, pH 5.5). The washing was carried out by adding 1 ml of buffer to the packing material, the suspension was vortexed for 1 min, centrifuged at 3000×g for 10 min and the supernatant decanted. The enzyme solution (8-10 μg in 1 ml sodium acetate buffer) was added to the packing material, the mixture was vortexed for 15 min and then placed in a shaking bath for 2 h at ambient temperature. At the end of 2 h, the suspension was centrifuged, the supernatant decanted and the packing material washed three additional times with buffer. The amount of enzyme immobilized on the packing material was determined by measuring the amount of residual enzyme in the supernatant using the BioRad Protein Assay. The difference in the absorbance reading before immobilization and the total of absorbances after immobilization determined the amount of enzyme bound on the packing material.

In data set [3] the target is T3, DBH-Glut-P IMER (immobilized dopamine beta-hydroxylase) (Bos taurus, UniProt P15101).
T3 construct: purchased
T3 sequence (P15101 1-610): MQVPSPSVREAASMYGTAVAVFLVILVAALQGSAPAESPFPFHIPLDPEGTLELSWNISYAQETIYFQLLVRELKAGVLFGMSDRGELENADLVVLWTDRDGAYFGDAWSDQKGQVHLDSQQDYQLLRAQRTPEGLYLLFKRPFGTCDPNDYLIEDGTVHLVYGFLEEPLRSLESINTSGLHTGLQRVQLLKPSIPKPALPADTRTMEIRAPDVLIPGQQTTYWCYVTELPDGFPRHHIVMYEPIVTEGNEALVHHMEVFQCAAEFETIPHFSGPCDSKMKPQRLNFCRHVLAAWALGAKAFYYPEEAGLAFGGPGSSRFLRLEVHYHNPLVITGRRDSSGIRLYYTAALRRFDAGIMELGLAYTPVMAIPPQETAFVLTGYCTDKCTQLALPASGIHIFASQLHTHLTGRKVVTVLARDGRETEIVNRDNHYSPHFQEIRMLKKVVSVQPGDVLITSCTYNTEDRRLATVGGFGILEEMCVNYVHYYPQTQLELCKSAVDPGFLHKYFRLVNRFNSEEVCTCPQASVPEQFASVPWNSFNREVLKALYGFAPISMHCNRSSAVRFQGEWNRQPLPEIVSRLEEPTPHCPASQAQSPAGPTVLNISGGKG
Put plainly: On-line DBH-Glut-P immobilized enzyme reactor (DBH-Glut-P IMER) HPLC system. The class given is biochemical, bovine. The text has this: DBH immobilized on the IAM or Glut-P stationary phase was packed into a 1 cm×10 mm guard (Regis Technologies). The guard was placed in a holder and the resulting column connected to a chromatographic system. THE DBH-IAM-IMER and the DBH-Glut-P-IMER was washed with sodium acetate buffer [0.1M, pH 5.5] and sodium acetate buffer [0.1M, pH 6.0], respectively. The eluent from both IMERs was collected in order to determine if any of the DBH was being washed off the columns. The Biorad assay was utilized to measure the amount of non-immobilized enzyme. When the columns were not in use they were washed with sodium acetate buffer at the respective pHs and stored at 4° C.
Pumps 2 and 3 on system 2 and 3 were stopped. 100 μl of a substrate/cofactor mixture is loaded into the injector (i) and the valve is switched to the inject position at the same time the witching valve (SV) is switched such that substrate/product are eluted from the DBH-IMERs and concentrated onto the PBA column of system 2.The second pump was started and mobile phase A was pumped through the PBA column at a flow rate of 0.1 ml/min for 30 sec in order to elute, ascorbic acid and any other by-products produced from the reaction. The pump was then switched to mobile phase B with a flow rate of 0.1 ml/min for 2 min and simultaneously SV1 was switched such that unreacted substrate and product formed were concentrated on the analytical columns of System 3. When the specific contact time elapses the SV2 is switched back to the original position and the pump 3 is started.
The enzymatic activity on the DBH-Glut-P was determined by quantification of the amount of product formed with a given substrate. The temperature of the IMER unless otherwise stated was kept at 37° C. with a column heater. Stock solutions of tyramine were prepared in water. […] The kinetic parameters were determined using standard Michaelis-Menten approach. […] The rates of reaction (Vmax) were calculated using […]mol/mg/min. Results are expressed as mean±standard error of the mean (SEM). […]

Substrate in data set [4]: NCCc1ccc(O)c(O)c1
Put plainly: purified protein, by the assay type. Conditions: other: DBH-IAM; pH 5.5; 37.0 °C.

Substrate in data set [5]: NCCc1ccc(O)cc1
In words: DBH immobilized onto IAM stationary phase (DBH-IAM), batch assay. The class given is biochemical, bovine. Conditions: other: DBH-IAM; pH 5.5; 37.0 °C.

[6] abbreviates: read-out: % Control Activity DBH.
Where [7] appears, read: read-out: % Control Activity DBH-IAM.

A word on the IC50: it is the concentration that gives 50% inhibition. Read a high IC50 as lower potency. `CCCCc1ccc(C(=O)O)nc1` [Fusaric acid, fusaric acid] returned an IC50 in data set [1] of 7.5 nM. The “inhibition of DBH mediated formation of norepinephrine from dopamine” value in data set [1] (non-immobilized enzyme, concentrations as low as 10^−6M) is recorded as “approximately 50%”. Also, in data set [1] (setting [6]), the remaining activity at 0.0016 µM was 99%, the remaining activity at 0.0032 µM stood at 84%, the remaining activity at 0.0063 µM was 40% and the remaining activity at 0.0125 µM amounted to 21%. Further, in data set [1] (setting [6]), the remaining activity at 0.025 µM stood at 19%, the remaining activity at 0.05 µM turned out to be 17%, the remaining activity at 0.1 µM stood at 0% and the remaining activity at 0.2 µM came out at 0%. Besides, the “inhibition of DBH mediated formation of norepinephrine from dopamine” value in data set [2] (immobilized enzyme (DBH-IAM), concentrations as low as 10^−6M) is “approximately 50%”. Moreover, in data set [2] (setting [7]), the remaining activity at 0.0016 µM came out at 91%, the remaining activity at 0.0032 µM was found to be 73%, the remaining activity at 0.0063 µM was determined as 56% and the remaining activity at 0.0125 µM turned out to be 51%. Further, in data set [2] (setting [7]), the remaining activity at 0.025 µM is 46%, the remaining activity at 0.05 µM was determined as 20%, the remaining activity at 0.1 µM amounted to 0% and the remaining activity at 0.2 µM turned out to be 0%. In data set [3], this molecule yielded an IC50 of 5.6 nM.

B1: dopamine beta-hydroxylase immobilized onto IAM (DBH-IAM) (Bos taurus) (protein)
chain: MQVPSPSVREAASMYGTAVAVFLVILVAALQGSAPAESPFPFHIPLDPEGTLELSWNISYAQETIYFQLLVRELKAGVLFGMSDRGELENADLVVLWTDRDGAYFGDAWSDQKGQVHLDSQQDYQLLRAQRTPEGLYLLFKRPFGTCDPNDYLIEDGTVHLVYGFLEEPLRSLESINTSGLHTGLQRVQLLKPSIPKPALPADTRTMEIRAPDVLIPGQQTTYWCYVTELPDGFPRHHIVMYEPIVTEGNEALVHHMEVFQCAAEFETIPHFSGPCDSKMKPQRLNFCRHVLAAWALGAKAFYYPEEAGLAFGGPGSSRFLRLEVHYHNPLVITGRRDSSGIRLYYTAALRRFDAGIMELGLAYTPVMAIPPQETAFVLTGYCTDKCTQLALPASGIHIFASQLHTHLTGRKVVTVLARDGRETEIVNRDNHYSPHFQEIRMLKKVVSVQPGDVLITSCTYNTEDRRLATVGGFGILEEMCVNYVHYYPQTQLELCKSAVDPGFLHKYFRLVNRFNSEEVCTCPQASVPEQFASVPWNSFNREVLKALYGFAPISMHCNRSSAVRFQGEWNRQPLPEIVSRLEEPTPHCPASQAQSPAGPTVLNISGGKG
notes: purchased
Broadly, the Km is the substrate concentration at which the rate is half of its maximum. One may read the Vmax as the rate approached at saturating substrate. Consider B1, for which the Michaelis constant (Km) is 2530 µM in data set [4] and 1640 µM in data set [5]. For the same molecule, the Vmax turned out to be 0.160 µmol/mg/min in data set [4] and 0.101 µmol/mg/min in data set [5].
